From ChEMBL document CHEMBL4834486 (Bioorg Med Chem, 2021)

What was measured:
MCF7 = test: Antiproliferative activity against human MCF7 cells assessed as inhibition of cell proliferation measured after 72 hrs by CCK-8 assay; assay type: functional, cell-based; settings: MCF7, 72 h
MDA-MB-231 = test: Antiproliferative activity against human MDA-MB-231 cells assessed as inhibition of cell proliferation measured after 72 hrs by CCK-8 assay; assay type: functional, cell-based; settings: MDA-MB-231, 72 h
MCF-10A = test: Cytotoxicity against human MCF-10A cells assessed as inhibition of cell proliferation measured after 72 hrs by CCK-8 assay; assay type: cell-based

Compound | IC50 (MCF7) | IC50 (MDA-MB-231) | IC50 (MCF-10A)
O=CN[C@@H](Cc1ccc(N(CCCl)CCCl)cc1)C(=O)OCc1cc2c(cn1)[nH]c1ccccc12 | 2.7 µM | 6.53 µM | 25.7 µM
Cc1nc(COC(=O)[C@H](Cc2ccc(N(CCCl)CCCl)cc2)NC(=O)OC(C)(C)C)cc2c1[nH]c1ccccc12 | 4.9 µM | 17.5 µM | > 40 µM
COC(=O)[C@H](Cc1ccc(N(CCCl)CCCl)cc1)NC(=O)CCCC(=O)OCc1cc2c(cn1)[nH]c1ccccc12 | > 20 µM | > 20 µM | > 40 µM
Cc1nc(COC(=O)c2ccc(N(CCCl)CCCl)cc2)cc2c1[nH]c1ccccc12 | 3.78 µM | 7.48 µM | 26.4 µM
CC(C)(C)OC(=O)N[C@@H](Cc1ccc(N(CCCl)CCCl)cc1)C(=O)OCc1cc2c(cn1)[nH]c1ccccc12 | 3.43 µM | 16.9 µM | > 40 µM
COc1ccc(-c2nc(COC(=O)[C@H](Cc3ccc(N(CCCl)CCCl)cc3)NC(=O)OC(C)(C)C)cc3c2[nH]c2ccccc23)cc1 | 5.31 µM | 19.6 µM | > 40 µM
COC(=O)[C@H](Cc1ccc(N(CCCl)CCCl)cc1)NC(=O)CCCC(=O)OCc1cc2c([nH]c3ccccc32)c(-c2ccc(OC)cc2)n1 | > 20 µM | > 20 µM | > 40 µM
COc1ccc(-c2nc(CO)cc3c2[nH]c2ccccc23)cc1 | 15.8 µM | > 20 µM | > 40 µM
N[C@@H](Cc1ccc(N(CCCl)CCCl)cc1)C(=O)O [MELPHALAN] | 8.48 µM | > 20 µM | > 40 µM
Cc1nc(CO)cc2c1[nH]c1ccccc12 | 11.3 µM | > 20 µM | > 40 µM
